PubChem BioAssay AID602380 (Sanford-Burnham Center for Chemical Genomics, 2012)
The source made the active and inactive calls. How the calls were made is not given here.

Assay: TIM10 isogenic strain growth inhibitors – luminescence, S. cerevisiae, counter-screen for tim23-1 inhibitor project, SAR follow-up (AID 602380)
Conditions: S. cerevisiae TIM10 isogenic control strain, BacTiter-Glo growth luminescence

Compound	IC50
CCOc1cc2ccccc2cc1C(=O)O/N=C(\N)c1ccc(Cl)cc1	2.42 µM
O=C(Nc1nc2ccccc2s1)C1CCCN1S(=O)(=O)c1ccc(Cl)cc1 (centres undefined)	6.26 µM
COc1ccc(/C(N)=N/OC(=O)c2ccc(C(F)(F)F)cc2)c(OC)c1	72.7 µM
CCCCOc1ccc(C(=O)O/N=C(\N)c2cccc(Br)c2)cc1	20.8 µM
O=C(O)c1cccnc1SCc1cc(=O)n2cc(Br)ccc2n1	> 99 µM (inactive)
Cc1ccc(S(=O)(=O)Cc2cc(=O)n3ccccc3n2)nc1	> 99 µM (inactive)
N/C(=N\OC(=O)c1ccc2ncsc2c1)c1ccc(Cl)cc1Cl	2.57 µM
CS(=O)(=O)Nc1ccc(/C(N)=N/OC(=O)c2ccccc2Cl)cc1	66.4 µM
CC(C)Cn1cnc2c(c(-c3ccccc3)c(-c3ccccc3)n2Cc2ccco2)c1=N	34.3 µM
CCn1c(N2CCN(S(=O)(=O)c3ccc(OC)cc3)CC2)nc2ccccc21	15.8 µM
Cn1c(SCc2cccc(/C(N)=N/OC(=O)c3ccc(Cl)cc3)c2)nnc1C(F)(F)F	3.59 µM
N/C(=N\OC(=O)c1cccc2ccccc12)c1ccc(Cl)cc1	0.781 µM
Cc1nc2scc(C)n2c(=O)c1S(=O)(=O)Nc1ccc(N2CCOCC2)cc1	> 99 µM (inactive)
C=C1CCc2c([nH]c3ccc(OCC(C)C)cc23)C1=O	1.59 µM
Cc1ccc(OCC(=O)O/N=C(\N)Cc2ccc(Cl)cc2)cc1	20.4 µM
COc1ccc(/C=C/C(=O)Nc2ccc3c(c2)CCC3)cc1OC	11.2 µM
NC(=O)C1CCN(c2nc(-c3cccnc3)nc3ccccc23)CC1	> 99 µM (inactive)
O=C(CSCc1ccccc1)Nc1cc(S(=O)(=O)N2CCOCC2)ccc1Oc1ccccc1	> 99 µM (inactive)
Cc1ccc(/C(N)=N/OC(=O)c2ccccc2)cc1F	1.37 µM
Cc1nn(Cc2cccc(C(=O)O/N=C(\N)c3ccc(Cl)cc3)c2)c(C)c1Br	1.7 µM

Compound	IC50
N/C(=N\OC(=O)c1ccc(Cl)cc1)c1ccc(-c2csnn2)cc1	> 99 µM (inactive)
C(/C=C/c1ccccc1)=NNc1nc2ccccc2[nH]1	8.98 µM
O=C(NN=C/C=C\c1ccco1)c1cccs1	4.48 µM
CCN1CCc2nc3sc(C(=O)Nc4cc(Cl)ccc4OC)c(N)c3cc2C1	> 99 µM (inactive)
O=C(Nc1ccc2nc(-c3ccc(Br)o3)[nH]c2c1)c1cccs1	30.9 µM
Cc1nc2scc(C)n2c(=O)c1S(=O)(=O)Nc1cc(C(F)(F)F)ccc1Cl	79.2 µM
O=c1cc(C(F)F)oc2c1ccc1ccccc12	> 99 µM (inactive)
Cc1nc2scc(C)n2c(=O)c1S(=O)(=O)Nc1ccc2c(c1)OCCO2	80.5 µM
Nc1cccc(Oc2ccc(Oc3cccc(N)c3)cc2)c1	> 99 µM (inactive)
N/C(=N\OC(=O)c1ccc2ncsc2c1)c1ccccc1	9.17 µM
O=S(=O)(Nc1ccc(-c2cn3c(n2)SCC3)cc1)c1cccnc1	> 99 µM (inactive)
N/C(=N\OC(=O)c1ccc(Cl)cc1)c1ccc(S(=O)(=O)N2CCOCC2)cc1	4.81 µM
Cc1nc2scc(C)n2c(=O)c1S(=O)(=O)Nc1cccc(C(F)(F)F)c1	35.6 µM
O=C(Nc1ccn[nH]1)c1ccc(Br)cc1Cl	> 99 µM (inactive)
O=c1cc(CSc2ccc(S(=O)(=O)N3CCOCC3)cn2)nc2ccc(Br)cn12	42.9 µM
COc1cc2c(cc1OC)/C(=C/c1ccc(Cl)cc1)C(=O)OC2	2.61 µM
Cc1ccc2nc(N3CCN(S(=O)(=O)C4CC4)CC3)[nH]c2c1	49.4 µM
N=c1c2c(-c3ccccc3)c(-c3ccccc3)n(Cc3ccco3)c2ncn1CCCN1CCOCC1	> 99 µM (inactive)
Cc1c2c(n(Cc3ccco3)c1C)N=CN1CCS(=O)(=O)N=C21	48.5 µM
